Here are results for one molecule from patent US20250282802A1, “P[…] AND METHODS” (priority 2020, published 2025).

Like-named read-outs stand apart in the source and are kept apart here.

One series concerns T98G (glioblastoma). The experiment in a line: Cytotoxicity profiling (Alamar Blue), T98G. The class given is cell-based, human. Here is the method: (§1) FIG. 8. Cytotoxicity of pantaphos across various cancer cell lines. Assays were conducted as described (mBio. 2021 Feb. 2; 12(1):e03402-20), using the Alamar Blue method with 72-hour treatment using Raptinal ([…]) as Dead cell control; n=3. Cell seeding densities: CT26 (colon carcinoma) 2000 c/w; HOS (osteosarcoma) 2500 c/w; ES-2 (ovarian carcinoma), HCT-116 (colorectal carcinoma), A-549 (lung carcinoma), A-172 (glioblastoma), D54 (glioblastoma), U87 (glioblastoma), T98G (glioblastoma), SK-ML-28 (melanoma), MCF-7 (breast cancer), AM38 (glioblastoma) and MDA-MB-231 (breast cancer) 3000 c/w; U118MG (malignant glioma) 4000 c/w; HepG2 (liver cancer) 8000 c/w. c/w=cells per well. […]
(§2) Cell culture cytotoxicity screening. The compounds were evaluated for their ability to kill cancer cell lines in culture, using HOS (osteosarcoma); ES-2 (ovarian cancer); HCT 116 (colon cancer); A549 (lung carcinoma); and A172 (glioma) cells. Human skin fibroblast cells (HFF-1) were also assessed. […] 72 hours post-treatment, cell viability was assessed using the Alamar Blue method (http://www.bio-rad-antibodies.com/measuring-cytotoxicity-proliferation-spectrophotometry-fluorescence-alamarBlue.html). […] Conversion of Alamar Blue was measured with a plate reader (SpectraMax M3; Molecular Devices) by fluorescence (excitation wavelength: 555 nm; emission wavelength: 585 nm; cutoff 570 nm; autogain). […]

The test system of series [1] is ES-2 (human ovarian cancer). The experiment in a line: Cell culture cytotoxicity screening (Alamar Blue), ES-2. Particulars: for IC50: ES-2, Alamar Blue. The class given is cell-based. How it is done: (§3) FIG. 8. Cytotoxicity of pantaphos across various cancer cell lines. Assays were conducted as described (mBio. 2021 Feb. 2; 12(1):e03402-20), using the Alamar Blue method with 72-hour treatment using Raptinal ([…]) as Dead cell control; n=3. Cell seeding densities: CT26 (colon carcinoma) 2000 c/w; HOS (osteosarcoma) 2500 c/w; ES-2 (ovarian carcinoma), HCT-116 (colorectal carcinoma), A-549 (lung carcinoma), A-172 (glioblastoma), D54 (glioblastoma), U87 (glioblastoma), T98G (glioblastoma), SK-ML-28 (melanoma), MCF-7 (breast cancer), AM38 (glioblastoma) and MDA-MB-231 (breast cancer) 3000 c/w; U118MG (malignant glioma) 4000 c/w; HepG2 (liver cancer) 8000 c/w. c/w=cells per well. IC50 and Emax values shown in Table 6 were extracted from the raw data plotted in FIG. 8.
Cell culture cytotoxicity screening. The compounds were evaluated for their ability to kill cancer cell lines in culture, using HOS (osteosarcoma); ES-2 (ovarian cancer); HCT 116 (colon cancer); A549 (lung carcinoma); and A172 (glioma) cells. Human skin fibroblast cells (HFF-1) were also assessed. Cells were seeded (3000 cells well^−1 for ES-2, HCT 116, A549 and A172; 4000 cells well^−1 for HFF-1 and 2500 cells well^−1 for HOS) in a 96-well plate and allowed to attach overnight. Cells were treated with pantaphos in water. The concentrations of the tested compounds were 5 nM to 100 μM (1% water final; 100 μl well^−1). Raptinal (50 μM) was used as a dead control. On each plate, five technical replicates per compound were performed. 72 hours post-treatment, cell viability was assessed using the Alamar Blue method (http://www.bio-rad-antibodies.com/measuring-cytotoxicity-proliferation-spectrophotometry-fluorescence-alamarBlue.html). […] Conversion of Alamar Blue was measured with a plate reader (SpectraMax M3; Molecular Devices) by fluorescence (excitation wavelength: 555 nm; emission wavelength: 585 nm; cutoff 570 nm; autogain). Percentage death was determined by normalizing to water-treated cells and Raptinal-treated cells. […]

Series [2] relates to Acinetobacter baumannii ATCC 19606. The experiment in a line: Antibacterial bioassay (MIC), Acinetobacter baumannii. Particulars: CLSI. The class given is cell-based. Here is the method: Antibacterial bioassays. Susceptibility testing for the ESKAPE pathogens and Salmonella enterica LT2 was performed using a Kirby-Bauer method as outlined by the Clinical and Laboratory Standards Institute (CLSI). For rich media bioassays, Mueller Hinton Broth 2 (MH-2, Sigma-Aldrich, 90922) was used for all strains except 1% BHI was supplemented for Enterococcus faecalis ATCC 19433. For minimal media bioassays, glucose-MOPS minimal medium was used. Briefly, overnight bacterial cultures were sub-cultured and inoculated into 5 mL top agar (0.7% agar) for final concentration of 5×10^5 CFU/mL. Then, 20 μL of a compound 2-fold dilution series (200, 100, 50, 25, 12.5, 6.25 μM in water) was spotted on 6 mm diameter blank paper discs (BD BBL™ 231039). Control discs received 20 μL of 50 mg/mL kanamycin. Plates were incubated at 35° C. for 20-24 hours. […] Sensitivity of the IPTG-inducible phosphonate uptake strain WM6242 to pantaphos was tested using a disk diffusion assay. Plates containing growth medium were overlayed with 5 mL of top agar (0.7% agar) inoculated with 100 μL (OD600=0.8) of the phosphonate-specific E. coli indicator strain (WM6242) with or without addition of 1 mM IPTG. WM6242 is engineered with an IPTG-inducible, non-specific phosphonate uptake system (phnCDE). […]

Series [3] relates to A-172 (human glioma cancer). The experiment in a line: Cell culture cytotoxicity screening (Alamar Blue), A-172. In kind it is cell-based. How it is done:
as §3
Cell culture cytotoxicity screening. The compounds were evaluated for their ability to kill cancer cell lines in culture, using HOS (osteosarcoma); ES-2 (ovarian cancer); HCT 116 (colon cancer); A549 (lung carcinoma); and A172 (glioma) cells. Human skin fibroblast cells (HFF-1) were also assessed. Cells were seeded (3000 cells well^−1 for ES-2, HCT 116, A549 and A172; 4000 cells well^−1 for HFF-1 and 2500 cells well^−1 for HOS) in a 96-well plate and allowed to attach overnight. Cells were treated with pantaphos in water. The concentrations of the tested compounds were 5 nM to 100 μM (1% water final; 100 μl well^−1). Raptinal (50 μM) was used as a dead control. On each plate, five technical replicates per compound were performed. 72 hours post-treatment, cell viability was assessed using the Alamar Blue method (http://www.bio-rad-antibodies.com/measuring-cytotoxicity-proliferation-spectrophotometry-fluorescence-alamarBlue.html). Alamar Blue solution (10 μl of 440 μM resazurin in sterile 1×PBS) was added to each well, and the plate was incubated for 3-4 hrs. Conversion of Alamar Blue was measured with a plate reader (SpectraMax M3; Molecular Devices) by fluorescence (excitation wavelength: 555 nm; emission wavelength: 585 nm; cutoff 570 nm; autogain). Percentage death was determined by normalizing to water-treated cells and Raptinal-treated cells. For IC50 determination, the data were plotted as compound concentration versus dead cell percentage and fitted to a logistic-dose-response curve using OriginPro 2019 (OriginLab). The data were generated in triplicate, and IC50 values are reported as the average of three separate experiments along with SEM values.
In general terms: Resazurin is reduced to fluorescent resorufin, in cell work by metabolically active cells.

The next series has as its system HOS (human osteosarcoma). The experiment in a line: Cell culture cytotoxicity screening (Alamar Blue), HOS. The settings on record: 72 hours. In kind it is cell-based. Here is the method:
as §1, §2

With `O=C(O)/C=C(\C(=O)O)C(O)P(=O)(O)O` (stereo not shown) [pantaphos, 2-(hydroxy(phosphono)methyl)maleate], the IC50 – broadly, the concentration that gives 50% inhibition – with T98G (glioblastoma) (Homo sapiens, T98G, Alamar Blue, 72-hour treatment (Table 6)) was > 100 µM; in series [1] (72-hour treatment (Table 6)) it was > 100 µM; in series [1] (Homo sapiens, 72 hours), > 100 µM; in series [3] (A 172, 72 h, A-172, Alamar Blue, 72-hour treatment (Table 6)), 1.01 ± 0.06 µM; in series [3] (A 172, 72 h, A-172, Alamar Blue, 72 hours), 1 µM; in series [3] (A 172, A-172 (text of Example 5)), 1 µM. The IC50 in the series with HOS (human osteosarcoma) was 37 ± 6.28 µM. The “sensitivity of the cell line to pantaphos, in words” value in the series on T98G (glioblastoma) (glioblastoma cell line printed as TG98) is “resistant”. The “cytotoxicity at the maximum dose, in words” value in series [1] (ES-2, maximum dose) was “unaffected”. Further, the MIC (in general, the smallest concentration in the dilution series that meets the test's criterion for growth inhibition) is > 200 µM in series [2] (ATCC19606, Mueller-Hinton 2 medium, read-out: MIC, Rich medium) and > 200 µM in series [2] (ATCC19606, glucose-MOPS minimal medium, read-out: MIC, Minimal medium). Also, the Emax (in general, the maximal effect, on the per cent scale that the assay sets) was 99% in series [3] (A-172, Alamar Blue, 72 hours, read-out: Emax = percentage cell death (converted)) and 58% in the series on HOS (human osteosarcoma) (read-out: Emax = percentage cell death (converted)).
